Reference: BindingDB's records for doi:10.1016/s0960-894x(01)00239-6 (Dupont Pharmaceuticals, 2001)

Target: T1, Gag-Pol polyprotein [588-1027]/[588-1147] (Human immunodeficiency virus 1, UniProt P04585)
T1 construct: 588-1027; 588-1147
Assay: HIV-1 RT Assay
Conditions: pH 8.2; 37 °C
From the text: The IC50 of reverse transcriptase is the concentration that inhibits 50% of recombinant HIV-1 RT RNA-directed DNA polymerase activity in vitro.

Compound	IC50
CC[C@@H]1O[C@](/C=C/C2CC2)(C(F)(F)F)c2cc(F)ccc2NC1=O [(3S,5S)-5-[(E)-2-cyclopropylethenyl]-3-ethyl-7-fluoro-5-(trifluoromethyl)-1,2,3,5-tetrahydro-4,1-benzoxazepin-2-one]	151 nM
CC[C@@H]1O[C@](/C=C/C2CC2)(C(F)(F)F)c2cc(Cl)ccc2NC1=O [(3S,5S)-7-chloro-5-[(E)-2-cyclopropylethenyl]-3-ethyl-5-(trifluoromethyl)-1,2,3,5-tetrahydro-4,1-benzoxazepin-2-one]	185 nM
C[C@@H]1O[C@](/C=C/C2CC2)(C(F)(F)F)c2cc(Cl)ccc2NC1=O [(3S,5S)-7-chloro-5-[(E)-2-cyclopropylethenyl]-3-methyl-5-(trifluoromethyl)-1,2,3,5-tetrahydro-4,1-benzoxazepin-2-one]	46 nM
C[C@@H]1O[C@](/C=C/C2CC2)(C(F)(F)F)c2cc(F)ccc2NC1=O [(3S,5S)-5-[(E)-2-cyclopropylethenyl]-7-fluoro-3-methyl-5-(trifluoromethyl)-1,2,3,5-tetrahydro-4,1-benzoxazepin-2-one]	129 nM
C[C@@H]1O[C@](/C=C/C2CC2)(C(F)(F)F)c2c(ccc(F)c2F)NC1=O [(3S,5S)-5-[(E)-2-cyclopropylethenyl]-6,7-difluoro-3-methyl-5-(trifluoromethyl)-1,2,3,5-tetrahydro-4,1-benzoxazepin-2-one]	173 nM
